Results: patent publication US6462055B2, “Alpha-methylbenzyl-containing thiourea inhibitors of herpes viruses containing a phenylenediamine group” (Wyeth, priority 1998, dated 2002)
In brackets after ≈: the same amount, converted by molar mass.

What was measured:
[1] = tested on: HCMV recombinant mutant virus (RV145); test: microbe, parasite or virus in culture; type: cell-based, human cytomegalovirus; settings: HCMV
Outline: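 Human foreskin fibroblasts infected with HCMV RV145 carrying a viral-promoter-driven beta-glucuronidase gene, in presence of compound. At 96 h post-infection, lysates assayed for beta-glucuronidase with colorimetric or fluorogenic glucuronide substrate as replication read-out. IC50 estimated from varying inhibitor amounts.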

[2] = tested on: HSV-1; test: HSV Antiviral (ELISA) Assay in Vero cells; type: cell-based, herpes simplex virus type 1; settings: HSV-1, Vero cells
Outline: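 Viral replication was quantified by cell-fixed ELISA for HSV glycoprotein D, using a β-galactosidase reporter and fluorogenic umbelliferyl substrate, about 24 h after HSV-1 infection (MOI 0.006) of Vero cells. Compounds, at several concentrations, were added 30 min pre-infection. IC50 was derived from fluorescence relative to the compound-free signal.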

[3] = tested on: VZV strain Ellen; test: VZV Antiviral (ELISA) Assay in human foreskin fibroblast cells; type: cell-based, varicella-zoster virus
Outline: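 Cell-based ELISA: infected/uninfected HFF mix (VZV Ellen, MOI <0.1) exposed to compound in DMEM/2% FBS for 3 days at 37° C. Anti-gpII monoclonal plus β-galactosidase-linked secondary, detected as 4-methylumbelliferone fluorescence; IC50 derived by comparing fluorescence with versus without compound.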

Structure (SMILES): O=C(Nc1ccc(NC(=S)NCc2ccc3c(c2)OCO3)cc1)c1ccccc1F [Example 540]
- IC50 ug/ml HCMV [1]: >0.5 µg/mL
- IC50 (ug/ml) HSV [2]: >10 µg/mL
- IC50 (ug/ml) VZV [3]: >10 µg/mL

Structure (SMILES): Cc1ccc(NC(=S)Nc2ccc(NC(=O)c3ccccc3F)cc2)cc1F [Example 997, 2-Fluoro-N-{4-[3-(3-fluoro-4-methyl-phenyl)-thioureido]-phenyl}-benzylamide]
- IC50 ug/ml HCMV [1]: 4 µg/mL (≈ 10.1 µM)
- IC50 (ug/ml) HSV [2]: 1.9 µg/mL (≈ 4.78 µM)
- IC50 (ug/ml) VZV [3]: >10 µg/mL

Structure (SMILES): CC(NC(=S)Nc1ccc(NC(=O)c2ccccc2Cl)cc1)c1ccc(F)cc1 (centres unmarked) [Example 755]
- IC50 ug/ml HCMV [1]: >10 µg/mL
- IC50 (ug/ml) HSV [2]: >10 µg/mL
- IC50 (ug/ml) VZV [3]: 7 µg/mL (≈ 16.4 µM)

Structure (SMILES): Cc1ccccc1C(C)NC(=S)Nc1ccc(NC(=O)c2ccccc2F)cc1 (centres unmarked) [Example 775]
- IC50 ug/ml HCMV [1]: 1 µg/mL (≈ 2.45 µM)
- IC50 (ug/ml) HSV [2]: >10 µg/mL
- IC50 (ug/ml) VZV [3]: >7.5 µg/mL

Structure (SMILES): Cc1ccc(NC(=S)Nc2ccc(NC(=O)c3c(F)cccc3F)cc2)cc1Cl [Example 235]
- IC50 ug/ml HCMV [1]: >10 µg/mL
- IC50 (ug/ml) HSV [2]: 0.2 µg/mL (≈ 0.463 µM)
- IC50 (ug/ml) VZV [3]: >10 µg/mL
- % inhibition 10 ug/ml VZV [3]: 50%

Structure (SMILES): CC(NC(=S)Nc1ccc(NC(=O)c2ccccc2F)cc1)c1cccc(N(C)C)c1 (centres unmarked) [Example 794]
- IC50 ug/ml HCMV [1]: 6.2 µg/mL (≈ 14.2 µM)
- IC50 (ug/ml) HSV [2]: 7 µg/mL (≈ 16 µM)
- IC50 (ug/ml) VZV [3]: 0.4 µg/mL (≈ 0.916 µM)

Structure (SMILES): CC(NC(=S)Nc1ccc(NC(=O)c2ccccc2F)cc1)c1cccc(Cl)c1 (centres unmarked) [Example 779]
- IC50 ug/ml HCMV [1]: 1.2 µg/mL (≈ 2.8 µM)
- IC50 (ug/ml) HSV [2]: >10 µg/mL
- IC50 (ug/ml) VZV [3]: >7.5 µg/mL

Structure (SMILES): COc1ccccc1C(=O)Nc1ccc(NC(=S)Nc2cc(Cl)c(OC)c(Cl)c2)cc1 [Example 873]
- IC50 ug/ml HCMV [1]: 0.3 µg/mL (≈ 0.63 µM)
- IC50 (ug/ml) HSV [2]: >10 µg/mL
- IC50 (ug/ml) VZV [3]: >10 µg/mL
- % inhibition 10 ug/ml VZV [3]: 23%

Structure (SMILES): CC(NC(=S)Nc1ccc(NC(=O)c2ccccc2F)cc1)c1ccccc1Cl (centres unmarked) [Example 784]
- IC50 ug/ml HCMV [1]: 1.1 µg/mL (≈ 2.57 µM)
- IC50 (ug/ml) HSV [2]: >10 µg/mL
- IC50 (ug/ml) VZV [3]: 0.7 µg/mL (≈ 1.64 µM)
